Consider 20 molecules from patent publication US20080026996A1, “Selective Vpac2 Receptor Reptide Agonists” (ELI LILLY AND COMPANY, priority 2004, published 2008).

pEC50, pIC50: −log10 of the molar value. Where a SMILES comes first, the peptide text is derived from it. Where no end group is shown, it is not given here. [ ]: non-standard residue; d: D form. The star is where a group is joined. Hexanoyl = CCCCCC(=O)*; Aib = CC(C)(N)C(=O)O Bounds are passed on as bounds.

The target of experiment [1] is T1, human VPAC2 (Homo sapiens, UniProt P41587).
T1 construct: expressed in transfected cells
T1 sequence (P41587 24-438): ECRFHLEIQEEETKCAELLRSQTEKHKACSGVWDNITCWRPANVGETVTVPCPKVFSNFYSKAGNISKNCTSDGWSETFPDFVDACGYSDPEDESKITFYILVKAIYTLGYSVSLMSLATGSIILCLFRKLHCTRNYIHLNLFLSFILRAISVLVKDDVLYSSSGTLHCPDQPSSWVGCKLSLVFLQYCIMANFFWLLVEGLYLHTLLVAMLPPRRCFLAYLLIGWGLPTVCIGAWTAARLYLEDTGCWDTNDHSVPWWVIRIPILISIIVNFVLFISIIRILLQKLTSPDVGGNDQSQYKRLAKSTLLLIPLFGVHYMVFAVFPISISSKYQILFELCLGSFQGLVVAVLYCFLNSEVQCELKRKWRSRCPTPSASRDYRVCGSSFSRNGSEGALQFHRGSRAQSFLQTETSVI
Put plainly: Alpha screen cAMP in vitro potency, human VPAC2 receptor. It counts as cell-based. The conditions noted are these: cAMP generation; single result from two analyses performed in a single run; read-out: Human VPAC2 Receptor: Alpha Screen EC50. The protocol: Alpha screen: Cells are washed in the culture flask once with PBS. Then, the cells are rinsed with enzyme free dissociation buffer. The dissociated cells are removed. The cells are then spun down and washed in stimulation buffer. For each data point, 50,000 cells suspended in stimulation buffer are used. To this buffer, Alpha screen acceptor beads are added along with the stimuli. This mixture is incubated for 60 minutes. Lysis buffer and Alpha screen donor beads are added and are incubated for 60 to 120 minutes. The Alpha screen signal (indicative of intracellular cAMP levels) is read in a suitable instrument (e.g. AlphaQuest from Perkin-Elmer). Steps including Alpha screen donor and acceptor beads are performed in reduced light.

A further experiment has as its target T2, human PAC1 (Homo sapiens, UniProt P41586).
T2 sequence (P41586 21-468): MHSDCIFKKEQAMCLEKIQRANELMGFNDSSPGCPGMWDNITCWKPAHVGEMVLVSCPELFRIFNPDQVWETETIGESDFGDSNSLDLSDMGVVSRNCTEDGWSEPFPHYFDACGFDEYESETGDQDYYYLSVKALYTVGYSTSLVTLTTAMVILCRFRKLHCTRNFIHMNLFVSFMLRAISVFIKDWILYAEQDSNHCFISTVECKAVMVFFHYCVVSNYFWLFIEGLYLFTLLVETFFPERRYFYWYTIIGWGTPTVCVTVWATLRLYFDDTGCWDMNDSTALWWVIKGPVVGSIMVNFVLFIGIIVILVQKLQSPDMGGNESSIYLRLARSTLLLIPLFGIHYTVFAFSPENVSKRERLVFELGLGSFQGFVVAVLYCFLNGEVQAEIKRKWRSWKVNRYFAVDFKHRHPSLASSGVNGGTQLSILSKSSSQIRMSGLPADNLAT
Put plainly: Filter binding assay, membranes of cells transiently transfected with human PAC1, 125I-labeled PACAP-27 tracer (Table 2). The arrangement: expressed in transfected cells. As to conditions: read-out: Human PAC1 Receptor Binding. The procedure: (§1) For this assay, the solutions and equipment include:
(§2) Presoak solution: 0.5% Polyethyleneamine in Aqua dest.
(§3) Buffer for flushing filter plates: 25 mM HEPES pH 7.4
(§4) Blocking buffer: 25 mM HEPES pH 7.4; 0.2% protease free BSA
(§5) Assay buffer: 25 mM HEPES pH 7.4; 0.5% protease free BSA
(§6) Dilution and assay plate: PS-Microplate, U form
(§7) Filtration Plate Multiscreen FB Opaque Plate; […] Type B Glasfiber filter
(§8) In order to prepare the filter plates, aspirate the presoak solution by vacuum filtration. Flush the plates twice with 200 μL flush buffer. Add 200 μL blocking buffer to the filter plate. The filter plate is then incubated […] for 1 hour at room temperature.
(§9) Fill the assay plate with 25 μL assay buffer, 25 μL membranes (2.5 μg) suspended in assay buffer, 25 μL compound (agonist) in assay buffer, and 25 μL tracer (about 40000 cpm) in assay buffer. Incubate the filled plate for 1 hour with shaking.
(§10) Conduct the transfer from assay plate to filter plate. Aspirate the blocking buffer by vacuum filtration and wash two times with flush buffer. Transfer 90 μL from the assay plate to the filter plate. Aspirate the 90 μL transferred from assay plate and wash three times with 200 μL flush buffer. Remove the plastic support. Dry for 1 hour at 60° C. Add 30 μL Microscint. Perform the count.

For a further experiment, the target named is T3, human VPAC1 (Homo sapiens, UniProt P32241).
T3 sequence (P32241 31-457): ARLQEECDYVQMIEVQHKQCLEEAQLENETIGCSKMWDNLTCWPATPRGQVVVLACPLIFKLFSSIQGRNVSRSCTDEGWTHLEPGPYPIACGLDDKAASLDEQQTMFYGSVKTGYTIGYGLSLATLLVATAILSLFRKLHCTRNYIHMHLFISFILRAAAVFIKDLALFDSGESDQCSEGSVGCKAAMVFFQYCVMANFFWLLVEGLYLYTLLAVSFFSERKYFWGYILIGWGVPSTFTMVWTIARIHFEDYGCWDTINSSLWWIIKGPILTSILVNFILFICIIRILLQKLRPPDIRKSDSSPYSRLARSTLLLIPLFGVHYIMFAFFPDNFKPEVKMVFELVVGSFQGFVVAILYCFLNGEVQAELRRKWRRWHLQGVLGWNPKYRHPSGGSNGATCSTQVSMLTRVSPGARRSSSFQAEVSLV
Put plainly: Filter binding assay, membranes of cells transiently transfected with human VPAC1, 125I-labeled VIP tracer (Table 2). The arrangement: expressed in transfected cells. As to conditions: read-out: Human VPAC1 Receptor Binding. The protocol: as §1, §2, §3, §4, §5, §6, §7, §8, §9, §10

Experiment [2] concerns the target T1, human VPAC2. The experiment can be described thus: Filter binding assay, membranes of stable VPAC2 cell line, 125I-labeled VIP tracer (Table 2). As to conditions: read-out: Human VPAC2 Receptor Binding. The protocol:
as §1, §2, §3, §4, §5, §6, §7, §8, §9, §10

By pEC50 is commonly meant −log10 of the EC50, conventionally taken in molar units. In the case of `CCCCCC(=O)N[C@@H](Cc1c[nH]cn1)C(=O)N[C@@H](CO)C(=O)N[C@@H](CC(=O)O)C(=O)N[C@@H](C)C(=O)N[C@H](C(=O)N[C@@H](Cc1ccccc1)C(=O)N[C@H](C(=O)N[C@@H](CC(=O)O)C(=O)N[C@@H](CC(N)=O)C(=O)N[C@@H](Cc1ccc(O)cc1)C(=O)N[C@H](C(=O)N[C@@H](CCCNC(=N)N)C(=O)N[C@@H](CC(C)C)C(=O)N[C@@H](CCCNC(=N)N)C(=O)N[C@@H](CCCCN)C(=O)N[C@@H](CCC(N)=O)C(=O)N[C@H](C(=O)N[C@@H](C)C(=O)N[C@@H](C)C(=O)N[C@@H](CCCCN)C(=O)N[C@@H](CCCCN)C(=O)N[C@@H](Cc1ccc(O)cc1)C(=O)N[C@@H](CC(C)C)C(=O)N[C@@H](CCC(N)=O)C(=O)N[C@@H](CO)C(=O)N[C@H](C(=O)N[C@@H](CCCCN)C(=O)N[C@@H](CCC(N)=O)C(=O)N[C@@H](CCCCN)C(=O)NCC(=O)NCC(=O)N1CCC[C@H]1C(=O)N[C@@H](CO)C(=O)N[C@@H](CO)C(=O)NCC(=O)N[C@@H](C)C(=O)N1CCC[C@H]1C(=O)N1CCC[C@H]1C(=O)N1CCC[C@H]1C(=O)N[C@@H](CO)C(=O)O)[C@@H](C)CC)C(C)C)[C@@H](C)O)[C@@H](C)O)C(C)C` [Agonist P270] (Hexanoyl-HSDAVFTDNYTRLRKQVAAKKYLQSIKQKGGPSSGAPPPS-OH; C-terminus assumed), at human VPAC2 [1], the pEC50 was 9.89. In addition, the pIC50 on human PAC1 was 6.36; on human VPAC1, 6.96; at human VPAC2 [2], 9.82.
Take “Hexanoyl-HSDAVFTDNYTRLRKQVAAKKWLQSIKNKRYGGPSSGAPPPS [Agonist P129]”: the pEC50 at human VPAC2 [1] was 9.31. Moreover, the pIC50 on human PAC1 was 6.17; on human VPAC1, 6.34; at human VPAC2 [2] it was 9.42.
For the molecule “Hexanoyl-HSDAVFTDNYTRLRKQVAAKKYLQSVKNKRYGGPSSGAPPPS [Agonist P109]”, the pEC50 at human VPAC2 [1] is 9.66. Also, the pIC50 on human PAC1 is 6.59; at human VPAC1 it was 6.56; at human VPAC2 [2], 9.96.
The matching figures for “Hexanoyl-HSDAVFTDNYTRLRKQVAAKKYLQ[Aib]IKNKRYGGPSSGAPPPS [Agonist P187]”: 9.40, 6.53, 6.87 and 9.77.
The matching figures for “Hexanoyl-HSDAVFTDNYTRLKAQVAAKKYLQSIKNKRYGGPSSGAPPPS [Agonist P141]”: 9.14, 6.18, 7.59 and 9.19.
On the same counts, the results for “Hexanoyl-HSDAVFTDNYTRLRKQVAAKKYLQSIKNKKGGPSSGAPPPS [Agonist P121]” are 10.00, 6.60, 6.77 and 9.72.
Regarding “Hexanoyl-H[Aib]DAVFTDNYTRLRKQVAAKKYLQSIKNKRYGGPSSGAPPPS [Agonist P166]”, the negative-log EC50 (pEC50) at human VPAC2 [1] is 9.82. Besides, the pIC50 on human PAC1 is 6.90; on human VPAC1 it was 6.61; on human VPAC2 [2], 9.34.
Consider “Hexanoyl-HSDAVFTDNYTRLRKQVAAKKYLQSWKNKRYGGPSSGAPPPS [Agonist P110]”, for which the pEC50 at human VPAC2 [1] was 9.89. Moreover, the figures for the pIC50 on human PAC1, at human VPAC1 and at human VPAC2 [2] were 6.49, 6.37 and 10.00, respectively.
“Hexanoyl-H[dA]DAVFTDNYTRLRKQVAAKKYLQSIKNKRYGGPSSGAPPPS [Agonist P101]”: the pEC50 on human VPAC2 [1] is 9.68. Also, the pIC50 on human PAC1 was 6.56; at human VPAC1, 7.03; on human VPAC2 [2], 9.74.
On the same counts, the results for “Hexanoyl-HSDAVFTDNYTRLRKQVAAKKYLQNIKNKRYGGPSSGAPPPS [Agonist P125]” are 9.85, 6.52, 6.75 and 9.72.
As for “Hexanoyl-HSDAVFTDNYTRLRKQVAAKKYLQSTKNKRYGGPSSGAPPPS [Agonist P108]”, at human VPAC2 [1], the pEC50 was 9.57. The pIC50 is 6.31 at human PAC1, 6.48 at human VPAC1 and 9.35 at human VPAC2 [2].
On the same counts, the results for “Hexanoyl-HSDAVFTDNYTRLRKQVAAKKYLQFIKNKRYGGPSSGAPPPS [Agonist P112]” are 9.80, 6.79, 6.72 and 9.31.
The matching figures for “Hexanoyl-HSDAVFTDNYTRLLAKVALQKYLQSIKNKRYGGPSSGAPPPS [Agonist P196]”: 9.64, below 4.60, 6.34 and 9.07.
On the same counts, the results for “Hexanoyl-HSDAVFTDNYTRLLAKLALQKYLQSIKNKRYGGPSSGAPPPC [Agonist P164]” are 9.96, 5.03, below 5.52 and 8.61.
Consider “Hexanoyl-HSDAVFTDNYTRLRKQVAAKKYLQQIKNKRYGGPSSGAPPPS [Agonist P124]”, for which the negative logarithm of the EC50 (pEC50) at human VPAC2 [1] is 10.05. In addition, the pIC50 on human PAC1 is 6.58; at human VPAC1 it was 6.68; on human VPAC2 [2], 9.70.
On to “Hexanoyl-HSEAVFTDNYTRLRKQVAAKKYLQSIKNKRYGGPSSGAPPPS [Agonist P224]”, for which the negative-log EC50 (pEC50) on human VPAC2 [1] was 9.85. Besides, the pIC50 was 6.68 at human PAC1, 6.68 on human VPAC1 and 9.46 at human VPAC2 [2].
As for “Hexanoyl-HSDAVFTDNYTRLRKQVAAKKYLQSLKNKRYGGPSSGAPPPS [Agonist P107]”, the pEC50 on human VPAC2 [1] was 9.92. Besides, the pIC50 at human PAC1 is 6.65; on human VPAC1 it was 6.91; at human VPAC2 [2], 9.80.
The matching figures for “Hexanoyl-HSDAVFTDNYTRLRKQVAAKKYLQSIKNKRGGPSSGAPPPS [Agonist P123]”: 9.92, 6.58, 6.78 and 9.59.
On the same counts, the results for “Hexanoyl-HSDAVFTDNYTRLRKQVAAKKYLQLIKNKRYGGPSSGAPPPS [Agonist P114]” are 9.85, 6.73, 6.77 and 9.25.
On the same counts, the results for “Hexanoyl-HSDAVFTDNYTRLRKQVAAKKYLQVIKNKRYGGPSSGAPPPS [Agonist P116]” are 9.92, 6.84, 6.43 and 9.13.
